Data on 40 molecules can be found in ChEMBL document CHEMBL3286383, “4-Benzofuranyloxynicotinamide derivatives are novel potent and orally available TGR5 agonists” (Eur J Med Chem, 2014).

The target in series [1] is T1, G-protein coupled bile acid receptor 1 (Mus musculus, UniProt Q80SS6).
T1 sequence (Q80SS6 whole entry): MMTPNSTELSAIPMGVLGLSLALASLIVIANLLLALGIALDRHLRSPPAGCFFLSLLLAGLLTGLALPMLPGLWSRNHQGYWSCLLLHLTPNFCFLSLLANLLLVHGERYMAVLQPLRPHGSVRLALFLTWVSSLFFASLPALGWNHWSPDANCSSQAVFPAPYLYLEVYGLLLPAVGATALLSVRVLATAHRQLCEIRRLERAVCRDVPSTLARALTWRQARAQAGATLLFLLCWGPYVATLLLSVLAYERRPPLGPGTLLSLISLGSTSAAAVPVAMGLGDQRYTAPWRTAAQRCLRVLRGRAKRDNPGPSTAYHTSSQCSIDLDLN
The experiment in a line: Agonist activity at mouse TGR5 expressed in HEK293 cells co-expressing CRE after 5.5 hrs by luciferase reporter gene assay. Format: functional, cell-based. In general terms: Reporter assays use an easily measured gene product as a stand-in for the process of interest.

The target of series [2] is T2, G-protein coupled bile acid receptor 1 (Homo sapiens, UniProt Q8TDU6).
T2 sequence (Q8TDU6 whole entry): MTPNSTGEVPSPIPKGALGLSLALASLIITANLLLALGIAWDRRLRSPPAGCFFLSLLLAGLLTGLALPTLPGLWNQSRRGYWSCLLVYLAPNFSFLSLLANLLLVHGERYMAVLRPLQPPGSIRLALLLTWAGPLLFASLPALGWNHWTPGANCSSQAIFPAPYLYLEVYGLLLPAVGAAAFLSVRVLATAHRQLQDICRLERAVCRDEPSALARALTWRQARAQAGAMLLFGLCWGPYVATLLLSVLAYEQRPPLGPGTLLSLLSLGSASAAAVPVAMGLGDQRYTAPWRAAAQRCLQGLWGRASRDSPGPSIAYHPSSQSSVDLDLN
The experiment in a line: Agonist activity at human TGR5 expressed in HEK293 cells co-expressing CRE after 5.5 hrs by luciferase reporter gene assay. In kind it is functional, cell-based.

Series [3] is described as follows: Drug level in ICR mouse blood at 50 mg/kg, po after 3 hrs by LC-MS/MS analysis. In kind it is ADME, organism-based. Further details: dose 50 mg/kg, route oral; call rule not given here. As to conditions: read-out: Drug uptake.
In series [4] the test system is Nucleic Acid. The experiment in a line: Ratio of drug level in ICR mouse bile at 50 mg/kg, po after 3 hrs to EC50 for mouse TGR5 expressed in HEK293 cells. Further details: dose 50 mg/kg. Format: organism-based.
Series [5] in a line: Apparent permeability of the compound from basolateral to apical side of human Caco2 cells up to 95 mins by LC-MS/MS analysis. To be noted: Caco-2. On the technique in general: Passage across Caco-2 layers is used to estimate intestinal permeability.
Series [6] is described as follows: Efflux ratio of permeability from apical to basolateral side over basolateral to apical side of human Caco2 cells up to 95 mins by LC-MS/MS analysis. As to conditions: Caco-2.
Series [7] can be described thus: Apparent permeability of the compound from apical to basolateral side of human Caco2 cells up to 95 mins by LC-MS/MS analysis. As to conditions: Caco-2.
Series [8] concerns Mus musculus. The experiment in a line: Antidiabetic activity in oral glucose loaded ICR mouse assessed as reduction of AUC (0 to 120 mins) of blood glucose level at 50 mg/kg, po by oral glucose tolerance test. Further details: scale not given: the % may be the effect or the level left. Format: functional.
Series [9] deals with Mus musculus. The experiment in a line: Gallbladder toxicity in ICR mouse assessed as increase of gallbladder volume at 50 mg/kg, po after 3 hrs. Format: organism-based. Further details: dose 50 mg/kg, route oral. To be noted: in vivo.
Series [10] can be described thus: Drug level in ICR mouse gallbladder at 50 mg/kg, po after 3 hrs by LC-MS/MS analysis. Format: ADME, organism-based, Gall bladder. Further details: dose 50 mg/kg, route oral. To be noted: read-out: Drug uptake.
Series [11] is described as follows: Drug level in ICR mouse bile at 50 mg/kg, po after 3 hrs by LC-MS/MS analysis. Further details: dose 50 mg/kg, route oral. To be noted: read-out: Drug uptake. Format: ADME, organism-based.
Series [12] is described as follows: Ratio of plasma concentration in ICR mouse plasma at 50 mg/kg, po after 3 hrs to EC50 for mouse TGR5 expressed in HEK293 cells. Format: ADME, organism-based. Further details: dose 50 mg/kg, route oral. To be noted: in vivo.
The test system of series [13] is Nucleic Acid. The experiment in a line: Ratio of drug level in ICR mouse gallbladder at 50 mg/kg, po after 3 hrs to EC50 for mouse TGR5 expressed in HEK293 cells. In kind it is organism-based. Further details: dose 50 mg/kg.
In series [14] the target is T3, G-protein coupled bile acid receptor 1 (Homo sapiens) (UniProt Q8TDU6).
T3 sequence (whole entry): T2 sequence (Q8TDU6 whole entry)
The experiment in a line: Agonist activity at human TGR5 expressed in HEK293 cells co-expressing CRE at 1 uM after 5.5 hrs by luciferase reporter gene assay. In kind it is functional, cell-based.

The target in series [15] is T2, G-protein coupled bile acid receptor 1. The experiment in a line: Agonist activity at human TGR5.

Molecules are shown by their SMILES.

For the molecule `CCOC(=O)c1coc2cc(Cl)c(Oc3ccncc3C(=O)N3CCN(C4CC4)c4ccccc43)cc12`, the values for the EC50 in series [1] and in series [2] were 0.039 µM and 0.0017 µM, respectively.

`CCOC(=O)c1oc2cc(Cl)c(Oc3ccncc3C(=O)N3CCN(C4CC4)c4ccccc43)cc2c1C`: the EC50 (in general, the concentration that produces a half-maximal response) in series [2] was determined as 0.038 µM.

For `Cc1c(/C=C/C(=O)O)oc2ccc(Cl)c(Oc3ccncc3C(=O)N3CCN(C4CC4)c4ccccc43)c12`, the values for the EC50 in series [1] and in series [2] were 0.018 µM and 0.025 µM, respectively. In the case of `O=C(c1cnccc1Oc1ccc2occc2c1)N1CCN(C2CC2)c2ccccc21`, the EC50 in series [1] amounted to 0.028 µM; in series [2] it was 0.0107 µM. In turn, `CCOC(=O)CNC(=O)c1oc2cc(Cl)c(Oc3ccncc3C(=O)N3CCN(C4CC4)c4ccccc43)cc2c1C` returned an EC50 in series [2] of 0.078 µM. With `Cc1coc2cc(Cl)c(Oc3ccncc3C(=O)N3CCN(C4CC4)c4ccccc43)cc12`, the concentration at 3 h was found to be 0.065 µg/mL in series [3], 0.41 µg/mL in series [10] and 0.438 µg/mL in series [11]. Besides, the Ratio stood at 1030 in the series with Nucleic Acid [4], 153 in series [12] and 891 with Nucleic Acid [13]. In series [5], the Papp B→A (as a rule, how fast a substance crosses the layer from the basolateral side) at 95 min amounted to 15 nm/s. Moreover, the efflux ratio (in general, a quotient of directional permeabilities that is used to spot active efflux) at 95 min in series [6] worked out at 0.71. In series [7], the Papp A→B (usually the apparent permeability from the apical to the basolateral side of a cell layer) at 95 min was 21 nm/s. The figures for the EC50 in [1] and in [2] were 0.00092 µM and 0.00028 µM, respectively. The Activity stood at 33% with Mus musculus [8] and 97% in the series with Mus musculus [9]. `O=C(c1cnccc1Oc1cccc2cccnc12)N1CCN(C2CC2)c2ccccc21`: the EC50 in series [2] worked out at 0.178 µM. For the molecule `O=C(c1cnccc1Oc1ccc2cccnc2c1)N1CCN(C2CC2)c2ccccc21`, the EC50 in [2] was determined as 0.059 µM. As for `CCOC(=O)CCc1oc2ccc(Cl)c(Oc3ccncc3C(=O)N3CCN(C4CC4)c4ccccc43)c2c1C`, the EC50 is 0.072 µM in [1] and 0.018 µM in series [2]. With `O=C(c1cnccc1Oc1ccc2sccc2c1)N1CCN(C2CC2)c2ccccc21`, the concentration for a half-maximal effect (EC50) is 0.052 µM in series [1] and 0.016 µM in series [2].

Consider `Cc1c(Br)oc2cc(Cl)c(Oc3ccncc3C(=O)N3CCN(C4CC4)c4ccccc43)cc12`, for which the EC50 in [1] was 0.066 µM; in series [2], 0.0077 µM. The matching figures for `O=C(c1cnccc1Oc1ccc2ncsc2c1)N1CCN(C2CC2)c2ccccc21`: 0.06 µM and 0.015 µM. Turning to `CCOC(=O)CNC(=O)CCc1oc2ccc(Cl)c(Oc3ccncc3C(=O)N3CCN(C4CC4)c4ccccc43)c2c1C`, the concentration for a half-maximal effect (EC50) in series [1] amounted to 0.085 µM; in series [2], 0.03 µM.

Consider `O=C(c1cnccc1Oc1cc2ccoc2cc1Cl)N1CCN(C2CC2)c2ccccc21`, for which the EC50 in series [1] was determined as 0.01 µM; in series [2], 0.0014 µM.

`Cc1c(C(=O)O)oc2cc(Cl)c(Oc3ccncc3C(=O)N3CCN(C4CC4)c4ccccc43)cc12` registered an EC50 in series [2] of 0.063 µM. The molecule `CCOC(=O)CNC(=O)c1coc2cc(Cl)c(Oc3ccncc3C(=O)N3CCN(C4CC4)c4ccccc43)cc12` yielded an EC50 in series [2] of 1.4 µM. Molecule `O=C(c1cnccc1Oc1ccc2cc[nH]c2c1)N1CCN(C2CC2)c2ccccc21` displayed an EC50 in series [2] of 0.162 µM. In the case of `Cc1noc2ccc(Oc3ccncc3C(=O)N3CCN(C4CC4)c4ccccc43)cc12`, the results for the EC50 in series [1] and in [2] were 0.0055 µM and 0.0015 µM, respectively. Regarding `CCOC(=O)Cc1coc2cc(Cl)c(Oc3ccncc3C(=O)N3CCN(C4CC4)c4ccccc43)cc12`, the results for the 50% effective concentration (EC50) in series [1] and in [2] were 0.038 µM and 0.0052 µM, respectively. On to `O=C(O)c1coc2cc(Cl)c(Oc3ccncc3C(=O)N3CCN(C4CC4)c4ccccc43)cc12`, for which the Activity in series [14] turned out to be 38%. In [2], `O=C(O)Cc1coc2cc(Cl)c(Oc3ccncc3C(=O)N3CCN(C4CC4)c4ccccc43)cc12` showed an EC50 of 1.36 µM.

As for `Cc1coc2ccc(Oc3ccncc3C(=O)N3CCN(C4CC4)c4ccccc43)cc12`, the EC50 in series [1] is 0.0024 µM; in [2] it was 0.00045 µM. For the molecule `O=C(c1cnccc1Oc1cccc2ncccc12)N1CCN(C2CC2)c2ccccc21`, the midpoint of the response in series [2], the EC50, lay at 0.04 µM. On to `COC(=O)CCc1coc2cc(Cl)c(Oc3ccncc3C(=O)N3CCN(C4CC4)c4ccccc43)cc12`, for which the EC50 is 0.082 µM in series [1] and 0.024 µM in series [2]. On to `O=C(c1cnccc1Oc1ccc2ncccc2c1)N1CCN(C2CC2)c2ccccc21`, for which the EC50 in [2] turned out to be 0.064 µM. Take `O=C(c1cnccc1Oc1cccc2ccccc12)N1CCN(C2CC2)c2ccccc21`: the results for the concentration for a half-maximal effect (EC50) in [1] and in [2] were 0.066 µM and 0.017 µM, respectively.

`O=C(c1cnccc1Oc1ccc2ccoc2c1)N1CCN(C2CC2)c2ccccc21`: the EC50 in series [1] stood at 0.043 µM; in [2] it was 0.025 µM. Molecule `CCOC(=O)CNC(=O)CCc1coc2cc(Cl)c(Oc3ccncc3C(=O)N3CCN(C4CC4)c4ccccc43)cc12` came in with an EC50 in [2] of 0.119 µM. Take `O=C(c1cnccc1Oc1cccc2[nH]ccc12)N1CCN(C2CC2)c2ccccc21`: the EC50 in [2] amounted to 0.148 µM. As for `Cc1noc2cc(Oc3ccncc3C(=O)N3CCN(C4CC4)c4ccccc43)ccc12`, in [2], the EC50 came to 0.24 µM.

`CCOC(=O)/C=C/c1oc2ccc(Cl)c(Oc3ccncc3C(=O)N3CCN(C4CC4)c4ccccc43)c2c1C`: the values for the EC50 in [1] and in series [2] were 0.016 µM and 0.0089 µM, respectively. On to `O=C(c1cnccc1Oc1ccc2ccccc2c1)N1CCN(C2CC2)c2ccccc21`, for which, in series [2], the midpoint of the response, the EC50, lay at 0.041 µM. The same measure, in the same setting: as for `CCOC(=O)CNC(=O)Cc1coc2cc(Cl)c(Oc3ccncc3C(=O)N3CCN(C4CC4)c4ccccc43)cc12`, the figure is 0.52 µM.

For the molecule `CC(=O)c1cc(C(=O)N2CCN(C3CC3)c3ccccc32)ccc1O`, the EC50 in series [15] (read-out: EC50) came to 0.0023 µM. Same read-out and setting: as for `CC(=O)c1cccc(Oc2ccncc2C(=O)N2CCN(C3CC3)c3ccccc32)c1`, the figure is 0.0055 µM. Consider `CCOC(=O)CNC(=O)/C=C/c1oc2ccc(Cl)c(Oc3ccncc3C(=O)N3CCN(C4CC4)c4ccccc43)c2c1C`, for which the basolateral-to-apical permeability (Papp B→A) at 95 min in series [5] worked out at 5 nm/s. Also, the efflux ratio at 95 min in [6] was 0.48. In addition, the Papp A→B at 95 min in series [7] stood at 10.4 nm/s. The figures for the EC50 in series [1] and in series [2] were 0.0061 µM and 0.0085 µM, respectively. On to `O=C(c1cnccc1Oc1ccc2[nH]ccc2c1)N1CCN(C2CC2)c2ccccc21`, for which the response in series [2] was half-maximal at 1.22 µM (EC50).

In turn, `O=C(O)CCc1coc2cc(Cl)c(Oc3ccncc3C(=O)N3CCN(C4CC4)c4ccccc43)cc12` yielded an EC50 in series [2] of 0.675 µM. As to `O=C(c1cnccc1Oc1ccc(O)cc1)N1CCN(C2CC2)c2ccccc21`, the EC50 result in series [15] is on record as “Not Active”. For `Cc1c(CCC(=O)O)oc2ccc(Cl)c(Oc3ccncc3C(=O)N3CCN(C4CC4)c4ccccc43)c12`, the EC50 in [1] amounted to 0.101 µM; in series [2], 0.035 µM.
